Assay results as given in patent US20080194531A1, “Methods for Treating Visual Disorders” (priority 2005, published 2008).
“Also recorded” adds a separate entry of the source.

What was measured:
[1] = tested on: neurosensory retinal degeneration (P23H rat); assay: Outer nuclear layer (ONL) cell counting / retinal histopathology in homozygous P23H rats given TUDCA subcutaneously; format: in vivo
Description: We have studied the use of bile acids (tauroursodeoxycholic acid, TUDCA) for inhibition of neurosensory retinal degeneration in an animal model of retinal degeneration (P23H rat).
Animal Studies: The P23H rat model of inherited retinal degeneration is an animal model of a common mutation found in >10% of autosomal dominantly inherited retinitis pigmentosa in humans. This animal model has been studied in the laboratory of Dr. Olsen at the University of Minnesota. The mechanism of retinal degeneration is mediated by apoptosis, but may follow a separate pathway than that of the rds mouse. The P23H rat model represents a protein conformational disorder that leads to retinal degeneration. Other examples of protein conformation disorders include Huntington's and Parkinson's disease.
(§1) Preliminary Study: Homozygous line 1 and line 3 P23H rats (very strong model of rapid retinal degeneration, especially in the homozygous state), were given 100-200 mg/kg/d of TUDCA via subcutaneous injections while control animals will be given placebo vehicle only. Animals were sacrificed at intervals that correspond to the known retinal degenerations. Eyes were enucleated and the neurosensory retina was examined for signs of neuroprotection by counting the cell nuclei in the various retinal layers (FIG. 1; study design). For each animal studied, 14 sections were taken for each eye with 30-50 separate measurements performed and averaged for each section. Counting the average number of outer nuclear layer (ONL) cells was used to determine the level of retinal injury or loss.

[2] = Animal weight recordings in TUDCA-treated P23H rats; format: in vivo, rat; conditions: p<0.05, TUDCA 100-200 mg/kg/d subcutaneous, suggests systemic toxicity
Experimental: as §1

[3] = tested on: inherited retinal degeneration (rds mouse); conditions: preliminary work; cited from earlier work
[4] = tested on: apoptosis; conditions: in vitro and in vivo; blocking classic pathways, induction of survival pathways; cited from earlier work
[5] = tested on: Huntington's disease animal models; conditions: animal models of Huntington's disease; cited from earlier work
[6] = tested on: Parkinsonian rats; conditions: cited from earlier work
[7] = tested on: neurologic injury after acute ischemic or hemorrhagic stroke; conditions: cited from earlier work

## C[C@H](CCC(=O)NCCS(=O)(=O)O)[C@H]1CC[C@H]2[C@@H]3[C@@H](O)C[C@@H]4C[C@H](O)CC[C@]4(C)[C@H]3CC[C@]12C [TUDCA, tauroursodeoxycholic acid]
[1]; homozygous P23H rat line 1, week 12, TUDCA 100-200 mg/kg/d subcutaneous, FIG. 2
  thickness of the ONL in histopathologic images, drug treated vs vehicle: visible difference in the thickness of the drug treated ONL as compared to the vehicle
[1]; homozygous P23H rat line 1, weeks 7, 10 and 12, TUDCA 100-200 mg/kg/d subcutaneous, FIG. 3
  average number of ONL cells, TUDCA vs vehicle controls: no statistically significant differences; also recorded: no statistically significant protective effect
[1]; homozygous P23H rat line 3, 9 week post-natal time point, p=0.16 (not statistically significant), TUDCA 100-200 mg/kg/d subcutaneous, FIG. 4
  rate of retinal degeneration by counting the ONL layer thickness: trend toward a protective effect
[1]; homozygous P23H rat line 3, TUDCA 100-200 mg/kg/d subcutaneous, FIG. 2
  thickness of the ONL in histopathologic images, drug treated vs control: less noticeable difference between the drug treated and the control
[2]; P23H rat line 1, by day 37 and beyond
  animal weight, treated vs controls: significant weight loss
[2]; P23H rat line 3, by day 37 and beyond
  animal weight, treated vs controls: significant weight loss
[3]
  electroretinographic response (functional test of vision): preservation of visual function
  protection of the inner nuclear layer of the retina: dramatic protection of the inner nuclear layer of the retina
[4]
  interruption of apoptosis: will interrupt apoptosis
[5]
  neuroprotection: neuroprotective
[6]
  graft survival: improved graft survival
[7]
  protection against neurologic injury: protect against neurologic injury
